From PubChem BioAssay (NCI)
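Each compound was tested at five concentrations against cells in 96-well plates for 48 hours. At the TGI there is no net growth.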

How the values were obtained:
Assay in all cases: DTP human tumour cell line panel, 48 h
IGROV1 ovarian = test system: IGROV1 ovarian
OVCAR-3 ovarian = test system: OVCAR-3 ovarian
SK-OV-3 ovarian = test system: SK-OV-3 ovarian
SW-620 colon = test system: SW-620 colon
M14 melanoma = test system: M14 melanoma
UACC-257 melanoma = test system: UACC-257 melanoma
786-0 renal = test system: 786-0 renal
ACHN renal = test system: ACHN renal
SF-295 CNS = test system: SF-295 CNS
SK-MEL-2 melanoma = test system: SK-MEL-2 melanoma
HCC-2998 colon = test system: HCC-2998 colon

| SMILES | TGI (IGROV1 ovarian) [µM] | TGI (OVCAR-3 ovarian) [µM] | TGI (SK-OV-3 ovarian) [µM] | TGI (SW-620 colon) [µM] | TGI (M14 melanoma) [µM] | TGI (UACC-257 melanoma) [µM] | TGI (786-0 renal) [µM] | TGI (ACHN renal) [µM] | TGI (SF-295 CNS) [µM] | TGI (SK-MEL-2 melanoma) [µM] | TGI (HCC-2998 colon) [µM] |
| --- | --- | --- | --- | --- | --- | --- | --- | --- | --- | --- | --- |
| CCOC(=O)C(NC(=O)CC)(Nc1ccc(S(=O)(=O)Nc2onc(C)c2C)cc1)C(F)(F)F (centres undefined) | > 100 | > 100 | > 100 | > 100 | > 100 | > 100 | > 100 | > 100 | > 100 | > 100 | > 100 |
| O=S(=O)(c1ccc(-c2nnc(-c3ccc(F)cc3)o2)cc1)c1ccc(-c2nnc(-c3ccc(F)cc3)o2)cc1 | > 100 | > 100 | 90.3 | > 100 | > 100 | > 100 | > 100 | 46.8 | > 100 | > 100 | > 100 |
| COc1ccc2nc3c(c(NCCCN(C)C)c2c1)CCCC3 | 47 | 51.4 | 58.4 | 51.5 | 26.1 | 31.3 | 28.8 | 55.3 | 29 | 37.1 | 21.5 |
| OCC(CCc1ccccc1I)C1=CCC2(CC1)OCCO2 (centres undefined) | 39.7 | 41.3 | > 100 | 61.5 | 35.3 | 45.1 | 42.5 | > 100 | 32.1 | 51 | 43.4 |
| Cc1nc2n(c1/C=C1/C(=O)Nc3ccccc31)CCS2 | > 100 | > 100 | > 100 | > 100 | > 100 | > 100 | > 100 | > 100 | > 100 | 26.2 | 61.9 |
| CN1N=C(c2ccncc2)OC1c1cccc(C(F)(F)F)c1 (centres undefined) | > 100 | > 100 | > 100 | > 100 | > 100 | > 100 | > 100 | > 100 | > 100 | > 100 | > 100 |
| O=C(O)CC[P+](c1ccccc1)(c1ccccc1)c1ccccc1 | > 100 | 56.5 | > 100 | > 100 | > 100 | > 100 | > 100 | > 100 | > 100 | 81.8 | > 100 |
| O=C1CC(C(CC(=O)c2ccccc2)c2ccccc2)C(=O)c2ccccc2N1 (centres undefined) | > 100 | > 100 | > 100 | > 100 | > 100 | > 100 | > 100 | > 100 | > 100 | 41.4 | > 100 |
| COc1cccc(/C(Cl)=C(\C=O)c2cccc(OC)c2)c1 | 47.8 | 29.1 | 41.7 | 19.5 | 26.1 | 42.4 | 38 | 25.8 | 35.6 | 32.7 | 30.5 |
| C=C[C@@]1(O)CCCC[C@@H]1CC(Sc1ccccc1)Sc1ccccc1 | 29.2 | – | 31.6 | – | 37 | 39.6 | 59.5 | > 100 | 27.8 | 32.3 | 26.6 |
| CCOC(=O)CCC1(C(=O)OCC)CCCC1=O (centres undefined) | > 100 | > 100 | > 100 | – | > 100 | > 100 | > 100 | > 100 | > 100 | > 100 | > 100 |
| Cc1cccc2nc3c(=O)[nH]c(=O)nc-3n(C)c12 | > 100 | > 100 | > 100 | > 100 | > 100 | > 100 | > 100 | > 100 | > 100 | > 100 | > 100 |
| NC(=O)c1cc(N(CCO)CCO)c([N+](=O)[O-])cc1[N+](=O)[O-] | > 100 | > 100 | > 100 | > 100 | > 100 | > 100 | > 100 | > 100 | > 100 | > 100 | > 100 |
| Cc1cn(C2CC(CCCO)C(CO)O2)c(=O)[nH]c1=O (centres undefined) | > 100 | > 100 | > 100 | > 100 | > 100 | > 100 | > 100 | > 100 | > 100 | > 100 | > 100 |
| CC(C)(O)C1CC[C@]2(C)[C@H]3CC[C@@H]4[C@@]5(C)CCCC(C)(C)[C@@H]5CC[C@@]4(C)[C@]3(C)CC[C@@H]12 (some centres undefined) | > 100 | > 100 | > 100 | > 100 | > 100 | > 100 | > 100 | > 100 | > 100 | > 100 | > 100 |
| [O-][n+]1c(CN2CCCCC2)nc2cccc3c2c1-c1ccccc1-3 | > 100 | 46.5 | 92.5 | > 100 | 31.3 | 39.4 | 51.5 | 70.5 | 84 | 43.7 | 31.8 |
| CCN(CC)CCCNC(=O)c1cc2cc(NC(=O)c3cc4cc([N+](=O)[O-])ccc4[nH]3)ccc2[nH]1 | > 100 | 75.8 | > 100 | > 100 | > 100 | 76.9 | > 100 | > 100 | > 100 | > 100 | > 100 |

| SMILES | TGI (IGROV1 ovarian) [µM] | TGI (OVCAR-3 ovarian) [µM] | TGI (SK-OV-3 ovarian) [µM] | TGI (SW-620 colon) [µM] | TGI (M14 melanoma) [µM] | TGI (UACC-257 melanoma) [µM] | TGI (786-0 renal) [µM] | TGI (ACHN renal) [µM] | TGI (SF-295 CNS) [µM] | TGI (SK-MEL-2 melanoma) [µM] | TGI (HCC-2998 colon) [µM] |
| --- | --- | --- | --- | --- | --- | --- | --- | --- | --- | --- | --- |
| O=S(=O)(O)c1cccc2cccc(N=Nc3c(O)ccc4ccccc34)c12 | > 100 | > 100 | > 100 | > 100 | > 100 | > 100 | > 100 | > 100 | > 100 | > 100 | > 100 |
| C=C1[C@@](C)([C@@H]2CCCS2)[C@H]2C(C)=C[C@]1(C)n1c(=O)n(-c3ccccc3)c(=O)n12 | > 100 | > 100 | > 100 | > 100 | > 100 | > 100 | > 100 | > 100 | > 100 | > 100 | > 100 |
| Cc1cccc2c1c1ccc3c(c1n2C)C(=O)C=CC3=O | 32.5 | 5.08 | 37.3 | 4.33 | 17.9 | 25 | 3.64 | 18 | 30.9 | 33.6 | 32.8 |
| O=C1C=C2CCC[C@H]3OC(=O)C[C@@]23CC1 | > 100 | > 100 | > 100 | > 100 | > 100 | > 100 | > 100 | > 100 | > 100 | > 100 | > 100 |
| CCOC(=O)C(C)Sc1nnc(COc2ccccc2OC)n1-c1ccccc1 (centres undefined) | > 100 | > 100 | > 100 | 47 | > 100 | > 100 | > 100 | > 100 | > 100 | > 100 | > 100 |
| Cc1ccc(S(=O)(=O)[C@@H](Cl)[C@H]2N=C(Cl)NN=C2c2ccccc2)cc1 | 55.4 | 31.3 | > 100 | 40.8 | 42.6 | 48.1 | 85 | > 100 | > 100 | 34.8 | > 100 |
| Cc1ccc(-c2nnc(CCCCCCCCc3nnc(-c4ccc(C)cc4O)n3N)n2N)c(O)c1 | > 100 | > 100 | > 100 | > 100 | > 100 | > 100 | > 100 | > 100 | > 100 | > 100 | > 100 |
| COC(=O)C(=O)C(C(=O)C(=O)Nc1cccc([N+](=O)[O-])c1)c1nc2ccc(Cl)cc2[nH]c1=O (centres undefined) | > 100 | > 100 | > 100 | > 100 | > 100 | > 100 | > 100 | > 100 | > 100 | > 100 | > 100 |
| CCSCN(C)c1nc(N(C)C)nc(N(C)C)n1 | > 100 | > 100 | > 100 | > 100 | > 100 | > 100 | > 100 | > 100 | > 100 | > 100 | > 100 |
| CCCc1c(C(=O)OCC)[nH]c(-c2ccc(-c3[nH]c(C(=O)OCC)c(CCC)c3C(=O)OCC)s2)c1C(=O)OCC | > 100 | > 100 | 98.6 | > 100 | > 100 | > 100 | > 100 | > 100 | > 100 | 57.2 | > 100 |
| CS[C@]12[C@@H]3C(=O)N(C)C(=O)[C@@H]3[C@](C)(C(=O)N1C)C(=O)N2c1ccccc1 | > 100 | > 100 | > 100 | > 100 | > 100 | > 100 | > 100 | > 100 | > 100 | > 100 | > 100 |
| CC(=O)OC1C2CCC3C(C)(O)C4CC(O)C(C)(C)C4(O)C(O)CC13CC2(C)O (centres undefined) | > 100 | > 100 | > 100 | – | > 100 | > 100 | > 100 | > 100 | > 100 | > 100 | > 100 |
| COCC1OC(S(=O)(=O)c2ccccc2)C(O)C(OC)C1OC (centres undefined) | > 100 | > 100 | > 100 | > 100 | > 100 | > 100 | > 100 | > 100 | > 100 | > 100 | > 100 |
| CS(=O)(=O)c1nc(-c2cc3c(c(S(C)(=O)=O)n2)CCC3)cc2c1CCCC2 | 34.8 | > 100 | 77.7 | > 100 | > 100 | > 100 | > 100 | > 100 | > 100 | 59.3 | > 100 |
| COC(=O)c1c(CC(Cc2ccc3c(c2)CCCC3)C(=O)OC)ccc2c1CCCC2 (centres undefined) | > 100 | > 100 | > 100 | > 100 | > 100 | > 100 | > 100 | > 100 | > 100 | > 100 | > 100 |
| CC(C)(C)CC(C)(C)NC(=S)NO | > 100 | > 100 | > 100 | > 100 | > 100 | > 100 | > 100 | > 100 | > 100 | > 100 | > 100 |
